Earlier results in paper PMC3150604 (Journal of medicinal chemistry, 2011).

Biological target: σ1 receptor
Conditions: read-out: σ1 receptor Ki; literature value ref 46

Ki: 9.39 nM
SMILES: O[C@H]1CCCC[C@@H]1N1CCC(c2ccc(I)s2)CC1 [compound 5, (1S,2S)-2-(4-(5-iodothiophen-2-yl)piperidin-1-yl)cyclohexanol]
